# Reference: patent US8337835B2, “Use of an endogenous ligand for peroxisome proliferator activated receptor alpha to treat liver disorders” (priority 2009, dated 2012)
# Tests used:
# PPARγ LBD = molecular target: T1, PPARγ LBD (Homo sapiens, UniProt P37231); assay: ALPHASCREEN binding assay, PPARγ ligand binding domain; conditions: 5 μM
# T1 construct: Identical experiments were performed using the PPARδ and PPARγ LBDs; 6xHis; made in house
# T1 sequence (P37231 238-503 limits assumed): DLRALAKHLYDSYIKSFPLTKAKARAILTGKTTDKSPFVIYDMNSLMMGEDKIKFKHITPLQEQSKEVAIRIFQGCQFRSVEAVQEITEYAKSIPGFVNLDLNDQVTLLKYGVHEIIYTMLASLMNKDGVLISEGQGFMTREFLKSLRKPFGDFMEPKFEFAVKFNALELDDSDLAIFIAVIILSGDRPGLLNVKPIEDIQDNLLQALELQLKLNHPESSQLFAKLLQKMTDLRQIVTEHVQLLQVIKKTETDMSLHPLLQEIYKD
# Protocol: Binding of 16:0/18:1-GPC and known agonists to the ligand binding domain (LBD) of PPARα in the presence of various peptide motifs was determined by ALPHASCREEN™ assay (Proc Natl Acad Sci USA 105, pp. 5034-5039, 2008). Experiments used 100 nM receptor LBD, purified as 6× His tag fusion proteins (Mol Cell 17, pp. 491-502, 2005), and 20 nM of N-terminal biotinylated CBP1 peptide or other coactivator peptides in the presence of 5 μg/ml donor and acceptor beads in 50 mM MOPS (pH 7.4), 100 mM NaCl, and 0.1 mg/ml BSA for 90 min at 25° C. Signals were generated in the absence or the presence of ligand. Identical experiments were performed using the PPARδ and PPARγ LBDs.
# Stealth™ siRNA oligonucleotides were used to inhibit the gene expression of mouse ChPT1 ([…]) (SEQ ID NO: 1) and CEPT1 ([…]) (SEQ ID NO: 2) were from Invitrogen (Carlsbad, Calif.). […] Expression of ACO and CPT-1 was also assessed 24 h after addition of 50 μM 16:0/18:1-GPC in a subset of Hepa 1-6 cells previously treated with CEPT1 siRNA. mRNA levels are normalized to control L32 ribosomal mRNA. […] FIGS. 6F-H show the binding of various peptide motifs to the purified PPARα (FIG. 6F), PPARδ (FIG. 6G), and PPARγ (FIG. 6H) LBD in the presence of 5 μM of the corresponding PPAR agonist or 16:0/18:1-GPC as measured by AlphaScreen assays. […]
# [1] = test system: PPARα-dependent genes ACO and CPT-1; assay: Portal vein infusion, hepatic ACO and CPT-1 mRNA by RT-PCR; format: in vivo, mouse; conditions: 10 mg/kg intraportal three times a day
# Protocol: Total RNA was extracted from Hepa 1-6 cells and liver using Trizol (Invitrogen) and treated with DNase I (RNase-free, Roche Molecular Biochemicals). Reverse transcription to cDNA and real-time quantitative PCR were performed using previously published procedures and primer-probe sequences for ACO and CPT-1 (Chakravarthy et al., 2005). RT-PCR for ChPT1 and CEPT1 was performed using the following primer-probe sets: ChPT1 (Forward, 5′-[…]-3′ (SEQ ID NO: 3); Reverse, 5′-[…]-3′ (SEQ ID NO: 4); Probe, 5′-[…]-3′ (SEQ ID NO: 5)); CEPT1 (Forward, 5′-TGCTGGACGGTCCCTTCTC-3′ (SEQ ID NO: 6); Reverse, 5′-[…]-3′ (SEQ ID NO: 7); Probe, 5′-[…]-3′ (SEQ ID NO: 8)). RNA not subjected to reverse transcription was included in each assay as a negative control. […] Relative mRNA levels were calculated using both the comparative CT and standard curve methods normalized to ribosomal protein L32, an invariant internal control. […]
# The objectives were achieved by portal vein infusion of 1-palmitoyl-2-oleoyl-sn-glycerol-3-phosphocholine (16:0/18:1-GPC) to rescue PPARα^−/− mice from fatty liver disease or hepatic steatosis, liver tissue extraction, RT-PCR gene expression analysis of the extracted liver tissue and lipid and triglyceride assessment of the extracted liver tissue. […] Fat staining of liver is shown in FIG. 7C and liver triglyceride quantified in FIG. 7D. […]
compound,measurement,setting,value
"CCCCCCCC/C=C\CCCCCCCC(=O)O[C@H](COC(=O)CCCCCCCCCCCCCCC)COP(=O)([O-])OCC[N+](C)(C)C [16:0/18:1-GPC, 1-palmitoyl-2-oleoyl-sn-glycerol-3-phosphocholine]",binding to PPARγ,PPARγ LBD,does not appear to bind
same,hepatic ACO and CPT-1 expression,[1]; PPARα-deficient mice,not in PPARα-deficient mice
same,hepatic ACO and CPT-1 expression,[1]; control (C57/BL6) mice,increased
